Results reported in patent publication US6479283B1, “Stimulation, culture and preservation of pancreatic cells” (Ascendia AB, priority 1997, dated 2002).

How the values were obtained:
[1] = system: naked mice with induced diabetes; experiment: Transplantation of cultured ICC in naked mice with alloxan-induced diabetes; format: in vivo; conditions: second series, 1×3 μl ICC; 1 mM DG added to HPMC culture medium
From the text: Transplantation in Naked Mice with Induced Diabetes
Diabetes was induced in naked mice by injection of alloxan (Dunn, J S, and McLetchie, Lancet 2 (1943) 384; Boquist L, Acta Pathol. Microbiol. Scand., Sect. A, 88 (1980) 201) resulting in […] within a few days indicated by blood glucose levels >25 mm. After about one week intact ICCs from other mice of this strain were transplanted to the […] anaesthetized animals. An incision was made in the abdominal wall and the left kidney was mobilized. A small hole was made in the kidney's thin […] capsule and a pipette containing ICC was carefully inserted therethrough under the capsule. The ICCs were deposited within the capsule, the pipette withdrawn and the abdominal wall and skin sutured.
In a first series of experiments an ICC standard dose of 2×3 μl corresponding to 600 ICC was injected. Three types of ICCs were compared:
(1) control, i.e. ICC islets cultured in medium RPMI 1640+10 mm nicotine amide+10% human serum (HS);
(2) ICC islets cultured in medium RPMI 1640+10 mm nicotine amide+10% human serum (HS)+9% of 1.5% HPMC in saline; […]
Numbers in square brackets indicate number of animals. […] Blood glucose was determined on day 7 and in weekly intervals thereafter. The arrow indicates nephrectomy, i.e., the kidney with ICC transplant was removed and blood glucose was determined one week thereafter. […]

[2] = system: fibroblast growth in ICC cultures; experiment: Fibroblast growth in ICC cultures; format: cell-based, porcine; conditions: 1 mM DG
From the text: (§1) (3) ICC islets cultured in medium RPMI 1640+10 mm nicotine amide+10% human serum (HS)+9% of 1.5% HPMC in saline+1 mm 2-deoxyglucose (DG).

fetal porcine ICCs = experiment: Differentiation of fetal porcine ICCs (glucose stimulated release of insulin), separate experiments; format: cell-based
From the text: as §1

O=CC[C@@H](O)[C@H](O)[C@H](O)CO [DG, 2-deoxyglucose]
Effect of DG on the reduction of blood glucose levels [1]: clearly beneficial effect on the reduction of blood glucose levels | Fibroblast growth [2]: reduces fibroblast growth | Differentiation giving rise to glucose stimulated release of insulin (fetal porcine ICCs): does not affect the differentiation
